The text below walks through data of patent US20050209104A1, “Dinoflagellate karlotoxins, methods of isolation and uses thereof” (priority 2002, published 2005).

For data set [1], the system named is rainbow trout erythrocytes. The settings on record: mixed with equal volume of 5% erythrocyte suspension. As to the method: The filtrate from water samples collected on Feb. […] Environmental water samples were allowed to thaw to room temperature and passed through a Sep-Pak Plus tC18 disposable cartridge (Waters Corp., Milford Mass.), attached to a vacuum manifold. The column was pre-equilibrated with methanol (20 ml) followed by H2O (20 ml). The cartridges were eluted with the following concentrations of MeOH/H2O: 100% H2O, 40%, 60%, 80%, and 100% MeOH (12 ml ea^−1). An aliquot of each elution was diluted, using Tris buffer +CaCl2, to give final dilutions ranging from 6 to 60% of original concentrations. […] The occurrence of hemolytic activity was determined by the absorbance of released hemoglobin, measured at 540 nm. Saponin (10 μg) served as a positive hemolysin control. Treatments were run in quadruplicate.
A hemolytic assay based on the lysis of fish erythrocytes was utilized to screen for bioactive materials. Cultures and culture fractions that were positive in the hemolytic assay were tested further using assays for ichthyotoxicity and cytotoxicity.
Blood was extracted from the caudal vein of rainbow trout (Oncorhynchus mykis) provided by the Center of Marine Biotechnology's Aquaculture Research Center. Needles were heparin (Sigma Chemical Co., St. Louis Mo.) treated and 10 units ml^−1 of additional heparin was added to whole blood samples to prevent clotting. […] Buffer pH was adjusted to 7.4 at 10° C. with 1N HCl, then filter sterilized (0.22 μm). […] Suspensions were stored at 4° C. for no longer than 10 days.
Hemolytic assays were performed by diluting test material in Tris buffer +CaCl2 (100 μl total) and adding this to a 5% erythrocyte suspension (100 μl). […] Assays were incubated on an orbital shaker (80-100 rpm) at 20° C. for 1 hour. Plates were then centrifuged at 2500 g for 5 min. and the supernatant (100 μl) was transferred to another flat bottom 96 well polystyrene plate, where the absorbance of released hemoglobin was read at 540 nm. Saponin (10 μg) (from Quillaja bark; Sigma Chemical Co., St. Louis Mo.) was used as a positive hemolysin control All treatments were run in quadruplicate.
LC50values and ranges were determined by Probit analysis (SPSS Base 10.0, SPSS Inc., Chicago Ill.).
Blood was extracted from the caudal vein of rainbow trout (Oncorhynchus mykis). […] Buffer pH was adjusted to 7.4 at 10° C. with 1N HCl, then filter sterilized (0.22 um). […] Blood suspensions were stored at 4° C. for no longer than 10 days.
Hemolysis assays were performed by diluting test material in Tris buFFer +CaCl2 (100 ul) and adding this to 100 ul of a 5% erythrocyte suspension for a total assay volume of 200 ul. […] Plates were incubated on an orbital shaker (80-100 rpm) at 20° C. for 1 hour. Plates were then centrifuged at 2000 g for 5 min. and the supernatant (100 ul) was transferred to a new flat bottom 96 well polystyrene plate, where the absorbance of released hemoglobin was read at 540 nm. Saponin (from Quillaja bark; Sigma Chemical Co., St. Louis Mo.) was used as a positive hemolysin control. Percent hemolysis (0-100%) was calculated from comparison to un-treated controls and samples treated with 10 ug saponin. All treatments were run in quadruplicate.
Hemolytic LC50 values were calculated from a dilution series of KmTx 2 and amphotericin B. LC50 values and ranges were determined by Probit analysis using a SPSS Base 10.0 statistical software package (SPSS Inc., Chicago, Ill.).

In data set [2] the test system is sheepshead minnow (Cyprinodon variegatus) larvae. Description: Static acute larval fish ichthyotoxicity bioassay (sheepshead minnow). The data set is classed as in vivo. The settings on record: algicide alone (control larvae without K. micrum). The protocol:
Ichthyotoxicity was evaluated using a static, acute (24-48 hour), small volume (2 ml), larval fish bioassay. Exposures were performed at 20° C. in 24-well non-tissue culture treated polystyrene plates (Becton Dickinson Labware, Franklin Lakes N.J.). Two species were utilized for ichthyotoxicity testing, zebrafish (Danio rerio) and sheepshead minnows (Cyprinodon variegatus), depending on their availability and salinity tolerance, with sheepshead minnows being tolerant to a wider range of salinities, but zebrafish being more readily obtainable in large numbers. Therefore, zebrafish, 5-<48 hrs old post-hatch, were used for toxic fraction testing, while sheepshead minnows, 3-<24 hours old post-hatch, were used to test whole dinoflagellate cultures. Larvae were not fed prior to or during testing. Previous experiments had shown that, at the biomass/water ratios used for each species, oxygen saturation remained >60% during the 48 hour exposure, as recommended in the Standard Guide for Conducting Acute Toxicity Tests with Fishes, Macroinvertebrates, and Amphibians (ASTM, 1992). All treatments were run in triplicate.
This experiment was run in triplicate. For these experiments, 12 psu ASW (Instant Ocean Brand) with added f/2-Si nutrient mixture (Guillard, 1975) and 1.5% soil extract and 0.3% chicken manure extract (alkalinity 75 mg L^−1 CaCO3) was used as the diluent. […]

Data set [3] relates to Karlodinium micrum (CCMP 1974). In words: Dinoflagellate lysis due to copper sulfate and potassium permanganate (K. micrum). Conditions: exposures ≧2 mg L^−1 and only after 2 hours. The data set is classed as cell-based.
The subject of a further data set is striped bass fingerlings. The settings on record: comparable salinities, higher alkalinities (Reardon and Harrell, 1990); cited from earlier work.

Each structure is given as a SMILES string. Read-outs that look alike come from different tables or passages of the source. Marks after values point to notes of the source that are not given here.

In the case of `O.O.O.O.O.O=S(=O)([O-])[O-].[Cu+2]` [CuSO4, CuSO4·5 H2O], the “presence of hemolytic activity of copper solution” value in data set [1] (copper 5 mg L^−1 without EDTA) is recorded as 4.957*; in data set [1] (copper 20 mg L^−1 without EDTA) it was 21.110*. Further, in data set [2], the “mortality or epithelial damage of sheepshead minnow larvae” value was “No mortality or epithelial damage”. Also, the Cell lysis result in data set [3] is given as “occurred in K. micrum”. For the same molecule, the “96h LC50” value in the data set on striped bass fingerlings is recorded as “ca. 8 mg L^−1”.
